This note sets out measurements from article PMC10150359 (Journal of Medicinal Chemistry, 2023).

Bounds are passed on as bounds.

The test system of data set [1] is EBOV-GP-Pseudotype Virus (pEBOV). As to the kind of experiment: microbe, parasite or virus in culture. Particulars: Zaire ebolavirus, 48 h; for inhibition at 10 µM: M-HeLa, read-out: %inh@10 μM (pEBOV).
Data set [2] in a line: in vitro. Particulars: human.

For the compound `O=C(Cc1ccc(Br)cc1)NN(Cc1ccccc1)c1ccccc1` [Compound 39, N′-Benzyl-2-(4-bromophenyl)-N′-phenylacetohydrazide], in data set [1], the inhibition at 10 µM worked out at 32%. The same compound gave a CC50 in data set [2] greater than 100 µM.

Take `CCOC(=O)CCCCCCNCC(=O)NN(c1ccccc1)c1ccccc1` [Compound 26, Ethyl 7-((2-(2,2-Diphenylhydrazinyl)-2-oxoethyl)amino)heptanoate]: the inhibition at 10 µM in data set [1] was determined as 51%. Besides, in data set [2], the CC50 was greater than 10 µM.

On to `CCOC(=O)C1CCN(CC(=O)NN(Cc2ccccc2)c2ccccc2)CC1` [Compound 35, Ethyl 1-(2-(2-Benzyl-2-phenylhydrazineyl)-2-oxoethyl)piperidine-4-carboxylate], for which the inhibition at 10 µM in data set [1] was 15%. In addition, the CC50 in data set [2] was greater than 100 µM.

Consider `O=C(CCNCCc1ccccc1)NN(c1ccccc1)c1ccccc1` [Compound 25, 3-(Phenethylamino)-N′,N′-diphenylpropanehydrazide], for which the inhibition at 10 µM in data set [1] came to 61%. This compound came in with a CC50 in data set [2] greater than 10 µM.

For `COC(=O)C1CCN(CC(=O)NN(Cc2ccccc2)c2ccccc2)CC1` [Compound 36, Methyl 1-(2-(2-Benzyl-2-phenylhydrazineyl)-2-oxoethyl)piperidine-4-carboxylate], the inhibition at 10 µM in data set [1] came to 24%. Moreover, in data set [2], the CC50 is greater than 100 µM.

Turning to `CCOC(=O)CCCCCCNCC(=O)NN(Cc1ccccc1)c1ccccc1` [Compound 37, Ethyl 7-((2-(2-Benzyl-2-phenylhydrazineyl)-2-oxoethyl)amino)heptanoate], in data set [1], the inhibition at 10 µM is 30%. The same compound displayed a CC50 in data set [2] greater than 100 µM.

Take `O=C(CCN1CCN(c2ccccc2)CC1)NN(c1ccccc1)c1ccccc1` [Compound 16, N′,N′-Diphenyl-3-(4-phenylpiperazin-1-yl)propanehydrazide]: the inhibition at 10 µM in data set [1] was found to be 70%. Moreover, the CC50 in data set [2] is greater than 10 µM.

Consider `CCOC(=O)C1CCN(CC(=O)NN(c2ccccc2)c2ccccc2)CC1` [Compound 17, Ethyl 1-(2-(2,2-Diphenylhydrazinyl)-2-oxoethyl)piperidine-4-carboxylate], for which, in data set [1], the inhibition at 10 µM amounted to 47%. Moreover, the CC50 in data set [2] is greater than 10 µM.

In the case of `CCCCCC(=O)N(c1ccccc1)c1ccccc1` [Compound 44, N,N-Diphenylhexanamide], the inhibition at 10 µM in data set [1] worked out at 32%. For the same compound, the CC50 in data set [2] is greater than 100 µM.

On to `CCCCCC(=O)NN(Cc1ccccc1)c1ccccc1` [Compound 38, N′-Benzyl-N′-phenylhexanehydrazide], for which the inhibition at 10 µM in data set [1] came to 18%. Besides, the CC50 in data set [2] is greater than 100 µM.

Consider `O=C(Cc1ccc(Br)cc1)N(c1ccccc1)c1ccccc1` [Compound 45, 2-(4-Bromophenyl)-N,N-diphenylacetamide], for which, in data set [1], the inhibition at 10 µM amounted to 36%. The same compound gave a CC50 in data set [2] greater than 100 µM.

Take `O=C(CNCCc1ccccc1)N(c1ccccc1)c1ccccc1` [Compound 42, 2-(Phenethylamino)-N,N-diphenylacetamide]: the inhibition at 10 µM in data set [1] came to 38%. The CC50 in data set [2] was greater than 100 µM.

With `CCOC(=O)CCCCCCNCCC(=O)NN(c1ccccc1)c1ccccc1` [Compound 27, Ethyl 7-((3-(2,2-Diphenylhydrazinyl)-3-oxopropyl)amino)heptanoate], the inhibition at 10 µM in data set [1] was determined as 53%. Further, in data set [2], the CC50 is greater than 10 µM.

For `O=C(CNCCc1ccccc1)NN(c1ccccc1)c1ccccc1` [Compound 24, 2-(Phenethylamino)-N′,N′-diphenylacetohydrazide], the inhibition at 10 µM in data set [1] came to 10%. Also, the CC50 in data set [2] is greater than 10 µM.

Consider `CCCCCC(=O)NN(c1ccccc1)c1ccccc1` [Compound 28, N′,N′-Diphenylhexanehydrazide], for which, in data set [1], the inhibition at 10 µM turned out to be 67%. For the same compound, in data set [2], the CC50 was greater than 10 µM.

On to `O=C(CN1CCN(c2ccccc2)CC1)NN(c1ccccc1)c1ccccc1` [Compound 15, N′,N′-Diphenyl-2-(4-phenylpiperazin-1-yl)acetohydrazide], for which the EC50 in data set [1] (HeLa, read-out: EC50 (μM) (pEBOV)) was greater than 100 µM. Moreover, in data set [1], the inhibition at 10 µM was determined as 8%. This compound also registered a CC50 in data set [2] greater than 10 µM.

The term EC50 denotes the midpoint of the concentration-response curve.
